Data published in US20050261472A1, “Binding moieties for fibrin” (Dyax Corp., priority 1999, published 2005).
Like-named read-outs stand apart in the source and are kept apart here. Bridge positions count the residues as written; N and C are the ends. Square brackets hold non-standard residues; d marks the D form. Peptide text beside a SMILES is read from it. hSer = N[C@@H](CCO)C(=O)O

Target: T1, DD(E) (Homo sapiens, UniProt P02671+P02675+P02679)
T1 construct: host or cells: purchased fibrinogen clotted with thrombin, digested with plasmin, then purified by ammonium sulfate cuts and Sephacryl S200
T1 sequence (P02671 130-216): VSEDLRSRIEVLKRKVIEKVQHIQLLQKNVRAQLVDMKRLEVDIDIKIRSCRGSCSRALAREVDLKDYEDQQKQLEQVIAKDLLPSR
T1 sequence (P02675 164-491): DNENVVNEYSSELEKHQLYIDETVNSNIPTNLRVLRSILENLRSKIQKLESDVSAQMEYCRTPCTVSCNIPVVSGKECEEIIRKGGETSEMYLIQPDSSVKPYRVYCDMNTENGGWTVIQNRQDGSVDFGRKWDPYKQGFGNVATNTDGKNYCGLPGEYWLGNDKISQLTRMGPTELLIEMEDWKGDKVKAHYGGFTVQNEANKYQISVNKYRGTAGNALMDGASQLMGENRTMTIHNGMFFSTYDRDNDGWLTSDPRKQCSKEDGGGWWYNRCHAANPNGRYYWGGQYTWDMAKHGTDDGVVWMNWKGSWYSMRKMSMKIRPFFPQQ
T1 sequence (P02679 114-432): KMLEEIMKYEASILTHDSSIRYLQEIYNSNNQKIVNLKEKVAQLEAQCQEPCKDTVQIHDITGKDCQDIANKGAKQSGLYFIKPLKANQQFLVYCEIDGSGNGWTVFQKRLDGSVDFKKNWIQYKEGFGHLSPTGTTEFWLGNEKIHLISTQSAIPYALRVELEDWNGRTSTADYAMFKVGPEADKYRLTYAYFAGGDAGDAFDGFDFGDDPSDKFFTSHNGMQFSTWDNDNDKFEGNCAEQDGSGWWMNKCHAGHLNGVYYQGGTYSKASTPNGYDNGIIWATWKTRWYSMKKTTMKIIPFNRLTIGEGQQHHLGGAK
T1 sequence (P02671 36-97): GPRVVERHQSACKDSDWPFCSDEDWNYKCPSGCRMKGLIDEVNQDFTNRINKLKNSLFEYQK
T1 sequence (P02675 45-152): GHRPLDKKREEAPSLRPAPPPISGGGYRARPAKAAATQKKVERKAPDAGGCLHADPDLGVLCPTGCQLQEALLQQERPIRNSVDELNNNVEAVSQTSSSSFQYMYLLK
T1 sequence (P02679 27-88): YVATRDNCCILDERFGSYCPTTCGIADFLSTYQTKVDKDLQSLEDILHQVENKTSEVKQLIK
Assay: dissociation constant against fibrin-derived polypeptide DD(E)
Type: binding
Experimental: The soluble fibrin-derived polypeptide DD(E) was prepared following a modification of a published method (Moskoitz and Budzynksi, Biochemistry, 33: 12937-12944 (1994) and references therein). Fibrinogen containing a Factor XIII trace impurity (1 g, Grade L; purchased from American Diagnostica) was dissolved in TBS buffer and dialyzed overnight against TBS containing 5 mM citrate. The fibrinogen concentration was adjusted to 3.0 mg/ml and CaCl2 was added to a concentration of 10 mM. Clotting of the fibrinogen was initiated by the addition of thrombin to 0.5 U/ml and the clot was incubated for 3 hours at 37° C. The clot was cut up with a spatula to release water and to concentrate the clot. The clot pieces were washed twice with TBS.Ca buffer (TBS containing 2 mM CaCl2) and were centrifuged at 4,000×g to compact the clots between washes. The clot material was resuspended in 250 ml TBS containing 25 mM CaCl2 and 2 K.I.U. plasmin per mg fibrin. The clots were digested overnight at 20° C. Undigested clot was removed by pipette, and the supernatant was shaken with 10 ml of Lysine Sepharose (Pharmacia) for 30 minutes and filtered to remove the resin. Aprotinin was added to the filtrate to a concentration of 500 U/μL. Ammonium Sulfate was added to 30% saturation and the precipitated protein was removed by centrifugation. More ammonium sulfate was added to the supernatant to a final concentration of 50% saturation, and the precipitated protein was concentrated by centrifugation. The pellets, containing DD(E), were resuspended in a small volume of buffer (50 mM Tris, 150 mM NaCl, 2 mM CaCl2) (<10 ml) and chromatographed on a Sephacryl S200 (Pharmacia) size exclusion column (5×100 cm) in the same buffer. Fractions of protein eluted from the column were assayed by SDS-PAGE for DD(E). DD(E) contains subunits of 55 kD (Fragment E) and 190 kD (Fragment DD). […]
Dissociation constants were determined against DD(E) as described above.

[1] = cyclic peptides of Table 12, unit inferred, read-out: Kd against DD(E)
[2] = sequences of phage isolates from TN10-9 and TN6-6 libraries (Table 5), read-out: Kd DD(E)

Kd (read-out: Kd DD(E))	Compound	other results
0.94 µM	CC[C@H](C)[C@H](NC(=O)[C@H](Cc1c[nH]c2ccccc12)NC(=O)[C@@H]1CSSC[C@H](NC(=O)[C@H](CCC(=O)O)NC(=O)[C@@H](N)Cc2c[nH]c3ccccc23)C(=O)N2CCC[C@H]2C(=O)N[C@@H](Cc2ccc(O)cc2)C(=O)NCC(=O)N[C@@H](CC(C)C)C(=O)N1)C(=O)N[C@@H](CCC(N)=O)C(N)=O [SEQ ID NO: 61, WECPYGLCWIQ] (H-WECPYGLCWIQ-NH2; disulfide 3-8)	
50 µM	CC(C)C[C@H](NC(=O)[C@@H]1CSSC[C@H](NC(=O)[C@@H]2CCCN2)C(=O)N[C@@H](CC(=O)O)C(=O)N[C@@H](Cc2ccc(O)cc2)C(=O)N[C@@H](Cc2ccc(O)cc2)C(=O)NCC(=O)N[C@@H]([C@@H](C)O)C(=O)N1)C(N)=O [compound 32] (H-PCDYYGTCL-NH2; disulfide 2-8)	
38 µM	C[C@@H](O)[C@@H]1NC(=O)CNC(=O)[C@H](Cc2ccc(O)cc2)NC(=O)[C@H](Cc2ccc(O)cc2)NC(=O)[C@H](CC(=O)O)NC(=O)[C@@H](N)CSSC[C@@H](C(N)=O)NC1=O [compound 34] (H-CDYYGTC-NH2; disulfide 1-7)	
22 µM	CC(C)C[C@H](NC(=O)[C@@H]1CSSC[C@H](N)C(=O)N[C@@H](CC(=O)O)C(=O)N[C@@H](Cc2ccc(O)cc2)C(=O)N[C@@H](Cc2ccc(O)cc2)C(=O)NCC(=O)N[C@@H]([C@@H](C)O)C(=O)N1)C(N)=O [compound 33] (H-CDYYGTCL-NH2; disulfide 1-7)	
> 100 µM	H-DYYGT-NH2 [compound 35]	

The remaining lines, values behind:

Compound	Kd (read-out: Kd DD(E))	other results
CC(C)C[C@H](N)C(=O)N1CCC[C@H]1C(=O)N[C@H]1CSSC[C@@H](C(=O)N[C@@H](C)C(=O)N[C@@H](CC(=O)O)C(N)=O)NC(=O)[C@H]([C@@H](C)O)NC(=O)CNC(=O)[C@H](Cc2ccc(O)cc2)NC(=O)[C@H](Cc2ccc(O)cc2)NC(=O)[C@H](CC(=O)O)NC1=O [SEQ ID NO: 47, LPCDYYGTCAD] (H-LPCDYYGTCAD-NH2; disulfide 3-9)	10.1 µM	
CC(C)C[C@H](NC(=O)[C@@H]1CSSC[C@H](NC(=O)[C@@H]2CCCN2C(=O)[C@@H](N)CC(C)C)C(=O)N[C@@H](CC(=O)O)C(=O)N[C@@H](Cc2ccc(O)cc2)C(=O)N[C@@H](Cc2ccc(O)cc2)C(=O)NCC(=O)N[C@@H](CO)C(=O)N1)C(=O)N[C@@H](CC(=O)O)C(N)=O [SEQ ID NO: 48, LPCDYYGSCLD] (H-LPCDYYGSCLD-NH2; disulfide 3-9)	26 µM	
C[C@@H](O)[C@@H]1NC(=O)CNC(=O)[C@H](Cc2ccc(O)cc2)NC(=O)[C@H](Cc2ccc(O)cc2)NC(=O)[C@H](CC(=O)O)NC(=O)[C@@H](NC(=O)[C@@H]2CCCN2C(=O)[C@@H](N)CCCNC(=N)N)CSSC[C@@H](C(=O)N[C@@H](Cc2ccccc2)C(=O)N[C@@H](CC(=O)O)C(N)=O)NC1=O [SEQ ID NO: 8, RPCDYYGTCFD] (H-RPCDYYGTCFD-NH2; disulfide 3-9)	3.4 µM	
C[C@@H](O)[C@@H]1NC(=O)CNC(=O)[C@H](Cc2ccc(O)cc2)NC(=O)[C@H](Cc2ccc(O)cc2)NC(=O)[C@H](CC(=O)O)NC(=O)CNC(=O)CNC1=O [(II)] (cyclo(GDYYGTG))		Kd [1]: > 500 µM
RFLCYDSYYHWWCSHH [compound 19]		Kd [2]: ~10 µM
CC(C)C[C@H](NC(=O)[C@@H]1CSSC[C@H](NC(=O)[C@@H]2CCCN2C(=O)[C@@H](N)CC(C)C)C(=O)N[C@@H](CC(=O)O)C(=O)N[C@@H](Cc2ccc(O)cc2)C(=O)N[C@@H](Cc2ccc(O)cc2)C(=O)NCC(=O)N[C@@H](CN)C(=O)N1)C(=O)N[C@@H](CC(=O)O)C(N)=O [SEQ ID NO: 49, LPCDYYGDprCLD]	> 500 µM	
CC(C)C[C@H](NC(=O)[C@@H]1CSSC[C@H](NC(=O)[C@@H]2CCCN2C(=O)[C@@H](N)CC(C)C)C(=O)N[C@@H](CC(=O)O)C(=O)N[C@@H](Cc2ccc(O)cc2)C(=O)N[C@@H](Cc2ccc(O)cc2)C(=O)NCC(=O)N[C@@H](CCO)C(=O)N1)C(=O)N[C@@H](CC(=O)O)C(N)=O [SEQ ID NO: 50, LPCDYYGHseCLD] (H-LPCDYYG[hSer]CLD-NH2; disulfide 3-9)	> 500 µM	
CC(C)C[C@H](NC(=O)[C@@H]1CSSC[C@H](NC(=O)[C@@H]2CCCN2C(=O)[C@@H](N)CC(C)C)C(=O)N[C@@H](CC(=O)O)C(=O)N[C@@H](C)C(=O)N[C@@H](Cc2ccc(O)cc2)C(=O)NCC(=O)N[C@@H]([C@@H](C)O)C(=O)N1)C(=O)N[C@@H](CC(=O)O)C(N)=O [SEQ ID NO: 43, LPCDAYGTCLD] (H-LPCDAYGTCLD-NH2; disulfide 3-9)	4.5 µM	
CC[C@H](C)[C@H](NC(=O)[C@H](Cc1c[nH]cn1)NC(=O)[C@@H]1CSSC[C@H](NC(=O)[C@@H](N)Cc2c[nH]cn2)C(=O)N2CCC[C@H]2C(=O)N[C@@H](Cc2ccc(O)cc2)C(=O)N[C@@H](CC(=O)O)C(=O)N[C@@H](CC(C)C)C(=O)N1)C(=O)N[C@@H](CC(C)C)C(N)=O [SEQ ID NO: 59, HCPYDLCHIL] (H-HCPYDLCHIL-NH2; disulfide 2-7)	3.8 µM	
CC[C@H](C)[C@H](NC(=O)[C@H](Cc1c[nH]cn1)NC(=O)[C@@H]1CSSC[C@H](NC(=O)[C@H](Cc2c[nH]cn2)NC(=O)[C@H](Cc2ccccc2)NC(=O)CN)C(=O)N2CCC[C@H]2C(=O)N[C@@H](Cc2ccc(O)cc2)C(=O)N[C@@H](CC(=O)O)C(=O)N[C@@H](CC(C)C)C(=O)N1)C(=O)N[C@@H](CC(C)C)C(N)=O [SEQ ID NO: 57, GFHCPYDLCHIL] (H-GFHCPYDLCHIL-NH2; disulfide 4-9 (inferred); N-terminus and C-terminus assumed)	6.7 µM	
NHGCYNSYGVPYCDYS [compound 18]		Kd [2]: 2.7 µM
CC(C)C[C@H](NC(=O)[C@@H]1CSSC[C@H](NC(=O)[C@@H]2CCCN2C(=O)[C@@H](N)CCCNC(=N)N)C(=O)N[C@@H](CC(N)=O)C(=O)N[C@@H](Cc2ccc(O)cc2)C(=O)N[C@@H](Cc2ccc(O)cc2)C(=O)NCC(=O)N[C@@H]([C@@H](C)O)C(=O)N1)C(=O)N[C@@H](Cc1c[nH]cn1)C(N)=O [SEQ ID NO: 16, RPCNYYGTCLH] (H-RPCNYYGTCLH-NH2; disulfide 3-9)	4 µM	
CC[C@H](C)[C@H](NC(=O)[C@H](Cc1c[nH]cn1)NC(=O)[C@@H]1CSSC[C@H](NC(=O)[C@H](Cc2c[nH]cn2)NC(=O)[C@H](Cc2ccccc2)NC(=O)[C@@H](N)Cc2c[nH]c3ccccc23)C(=O)N2CCC[C@H]2C(=O)N[C@@H](Cc2ccc(O)cc2)C(=O)N[C@@H](CC(=O)O)C(=O)N[C@@H](CC(C)C)C(=O)N1)C(=O)N[C@@H](CC(C)C)C(N)=O [SEQ ID NO: 21, W F H C P Y D L C H I L] (H-WFHCPYDLCHIL-NH2; disulfide 4-9; N-terminus and C-terminus assumed)	2.63 µM	
side-chain-to-side-chain cyclic peptide bearing a central Tyr-Tyr-Gly-Thr moiety [(III)]		Kd [1]: 179 µM
CC(C)C[C@H](NC(=O)[C@@H]1CSSC[C@H](NC(=O)[C@@H]2CCCN2C(=O)[C@@H](N)CC(C)C)C(=O)N[C@@H](CC(=O)O)C(=O)N[C@@H](Cc2ccc(O)cc2)C(=O)N[C@@H](Cc2ccc(O)cc2)C(=O)NCC(=O)N[C@@H](C(C)C)C(=O)N1)C(=O)N[C@@H](CC(=O)O)C(N)=O [SEQ ID NO: 51, LPCDYYGVCLD] (H-LPCDYYGVCLD-NH2; disulfide 3-9)	28 µM	
CC(C)C[C@H](NC(=O)[C@@H]1CSSC[C@H](NC(=O)[C@H](C)NC(=O)[C@@H](N)CC(C)C)C(=O)N[C@@H](CC(=O)O)C(=O)N[C@@H](Cc2ccc(O)cc2)C(=O)N[C@@H](Cc2ccc(O)cc2)C(=O)NCC(=O)N[C@@H]([C@@H](C)O)C(=O)N1)C(=O)N[C@@H](CC(=O)O)C(N)=O [SEQ ID NO: 41, LACDYYGTCLD] (H-LACDYYGTCLD-NH2; disulfide 3-9)	2.9 µM	
CC(C)C[C@H](NC(=O)[C@@H]1CSSC[C@H](NC(=O)[C@@H]2CCCN2C(=O)[C@@H](N)CC(C)C)C(=O)N[C@@H](CC(=O)O)C(=O)N[C@@H](Cc2ccc(O)cc2)C(=O)N[C@@H](Cc2ccc(O)cc2)C(=O)N[C@@H](C)C(=O)N[C@@H]([C@@H](C)O)C(=O)N1)C(=O)N[C@@H](CC(=O)O)C(N)=O [SEQ ID NO: 45, LPCDYYATCLD]	12.3 µM	
CC[C@H](C)[C@H](NC(=O)[C@H](Cc1c[nH]cn1)NC(=O)[C@@H]1CSSC[C@H](NC(=O)[C@H](Cc2c[nH]cn2)NC(=O)[C@@H](N)Cc2ccccc2)C(=O)N2CCC[C@H]2C(=O)N[C@@H](Cc2ccc(O)cc2)C(=O)N[C@@H](CC(=O)O)C(=O)N[C@@H](CC(C)C)C(=O)N1)C(N)=O [SEQ ID NO: 60, FHCPYDLCHI] (H-FHCPYDLCHI-NH2; disulfide 3-8; N-terminus and C-terminus assumed)	2 µM	
